Patent publication US20250235543A1, “MODIFIED PROTEINS AND PROTEIN DEGRADERS” (Cullgen (Shanghai), Inc., priority 2021, published 2025)
Read-outs that look alike come from different tables or passages of the source.

Key:
cyclin D1 = experiment: Cyclin D1 percentage degradation in Calu-1 cells (immunoblotting); type: cell-based; details: 16 hours
Summary of the method: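 Cyclin D1 degradation was assessed by western blot. Clarified lysates, obtained by RIPA lysis with inhibitors and centrifugation at 13,000 rpm, were normalized by BCA protein assay and separated by SDS-PAGE. Bands were detected with Western ECL Substrate on a Bio-Rad ChemiDoc MP Imaging system and quantified in Image Lab software to derive percentage degradation.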

CDK4 = target: T1, CDK4 (Homo sapiens, UniProt P11802); experiment: CDK4 percentage degradation in Calu-1 cells (immunoblotting); type: cell-based; details: for inhibition at 0.2 µM: read-out: CDK4 Degradation (200 nM); for inhibition at 10 µM: read-out: CDK4 Degradation (10 μM)
T1 construct: endogenous in cells; host or cells: Calu-1
T1 sequence (P11802 2-303 limits assumed): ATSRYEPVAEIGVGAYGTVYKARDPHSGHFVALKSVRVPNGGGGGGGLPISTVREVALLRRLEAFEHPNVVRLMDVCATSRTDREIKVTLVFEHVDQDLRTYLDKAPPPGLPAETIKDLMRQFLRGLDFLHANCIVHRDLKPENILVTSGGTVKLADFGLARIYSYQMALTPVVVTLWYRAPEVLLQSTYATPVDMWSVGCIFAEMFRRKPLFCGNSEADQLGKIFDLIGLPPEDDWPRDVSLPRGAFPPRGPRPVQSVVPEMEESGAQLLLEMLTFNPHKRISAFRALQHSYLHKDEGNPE
T1 sequence (P24385 whole entry partner): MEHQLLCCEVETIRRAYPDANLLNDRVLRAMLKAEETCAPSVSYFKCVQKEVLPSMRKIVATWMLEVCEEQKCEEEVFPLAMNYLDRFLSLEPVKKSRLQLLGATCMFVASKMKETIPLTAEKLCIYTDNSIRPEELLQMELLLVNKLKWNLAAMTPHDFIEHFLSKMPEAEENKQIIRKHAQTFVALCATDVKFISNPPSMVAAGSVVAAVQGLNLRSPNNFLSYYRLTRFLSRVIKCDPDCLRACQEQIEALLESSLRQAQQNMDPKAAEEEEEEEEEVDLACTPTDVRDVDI
T1 sequence (Q16531 2-1140 limits assumed, further chain): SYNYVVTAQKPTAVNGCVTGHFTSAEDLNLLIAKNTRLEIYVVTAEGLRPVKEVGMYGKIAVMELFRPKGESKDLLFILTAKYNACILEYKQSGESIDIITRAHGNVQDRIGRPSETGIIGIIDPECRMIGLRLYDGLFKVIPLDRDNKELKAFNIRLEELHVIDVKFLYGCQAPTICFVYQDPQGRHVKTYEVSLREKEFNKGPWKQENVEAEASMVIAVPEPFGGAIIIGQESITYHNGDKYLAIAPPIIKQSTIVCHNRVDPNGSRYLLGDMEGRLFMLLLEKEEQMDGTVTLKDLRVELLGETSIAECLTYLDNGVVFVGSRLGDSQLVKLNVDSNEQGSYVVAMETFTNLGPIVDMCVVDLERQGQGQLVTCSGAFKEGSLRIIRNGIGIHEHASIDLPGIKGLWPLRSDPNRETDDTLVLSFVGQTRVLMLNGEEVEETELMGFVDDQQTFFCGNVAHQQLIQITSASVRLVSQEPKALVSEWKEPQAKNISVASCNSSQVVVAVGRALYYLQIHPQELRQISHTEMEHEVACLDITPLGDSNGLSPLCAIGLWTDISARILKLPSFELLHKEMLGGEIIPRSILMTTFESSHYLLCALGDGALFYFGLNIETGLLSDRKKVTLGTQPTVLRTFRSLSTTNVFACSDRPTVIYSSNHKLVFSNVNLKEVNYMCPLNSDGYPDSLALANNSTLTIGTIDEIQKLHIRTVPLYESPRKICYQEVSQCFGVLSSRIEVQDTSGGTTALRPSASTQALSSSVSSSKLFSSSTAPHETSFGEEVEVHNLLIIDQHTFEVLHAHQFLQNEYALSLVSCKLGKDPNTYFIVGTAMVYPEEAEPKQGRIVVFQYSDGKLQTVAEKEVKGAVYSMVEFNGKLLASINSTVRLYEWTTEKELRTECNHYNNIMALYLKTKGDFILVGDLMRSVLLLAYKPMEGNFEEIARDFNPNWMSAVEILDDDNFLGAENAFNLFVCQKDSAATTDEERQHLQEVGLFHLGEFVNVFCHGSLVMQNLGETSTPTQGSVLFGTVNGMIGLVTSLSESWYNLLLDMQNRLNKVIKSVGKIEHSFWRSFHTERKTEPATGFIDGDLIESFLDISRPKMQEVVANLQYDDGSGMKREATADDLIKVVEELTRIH
Summary of the method: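 CDK4 degradation was measured by immunoblotting. Cells were washed in cold PBS and lysed in RIPA buffer with inhibitors for 30 min at 4° C., then spun at 13,000 rpm to clear. After BCA protein determination, lysates were heated at 99° C. for 5 min in Laemmli buffer, resolved on SDS-PAGE, imaged on a ChemiDoc MP with ECL substrate, and band intensities quantified.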

| inhibition at 0.2 µM (CDK4; Calu-1 cells, 200 nM, 16 hours) [%] | inhibition at 10 µM (CDK4; Calu-1 cells, 16 hours) [%] | SMILES | CyclinD1 Degradation (200 nM) (cyclin D1) | inhibition at 0.2 µM (CDK4; Calu-1, 16 h) [%] | CyclinD1 Degradation (10 μM) (cyclin D1) |
| --- | --- | --- | --- | --- | --- |
| < 30 | – | CC(=O)c1c(C)c2cnc(Nc3ccc(N4CCN(CC(=O)NCCOCCOCCOCCOCCNC(=O)CNc5ccc(C(=O)Nc6ncc(C)s6)c(C)c5)CC4)cn3)nc2n(C2CCCC2)c1=O [CPD-013, 4-((20-(4-(6-((6-Acetyl-8-cyclopentyl-5-methyl-7-oxo-7,8-dihydropyrido[2,3-d]pyrimidin-2-yl)amino)pyridin-3-yl)piperazin-1-yl)-2,19-dioxo-6,9,12,15-tetraoxa-3,18-diazaicosyl)amino)-2-methyl-N-(5-methylthiazol-2-yl)benzamide] | D (protein percentage degradation <30%) | – | – |
| > 80 | – | CNc1ccc(C(=O)Nc2nc(C)c(C)s2)c(NCCCCCCCNC(=O)CN2CCN(c3ccc(Nc4ncc5c(C)c(C(C)=O)c(=O)n(C6CCCC6)c5n4)nc3)CC2)c1 [CPD-370, 2-((7-(2-(4-(6-((6-Acetyl-8-cyclopentyl-5-methyl-7-oxo-7,8-dihydropyrido[2,3-d]pyrimidin-2-yl)amino)pyridin-3-yl)piperazin-1-yl)acetamido)heptyl)amino)-N-(4,5-dimethylthiazol-2-yl)-4-(methylamino)benzamide] | A (protein percentage degradation >=80%) | – | – |
| < 30 | – | CC(=O)c1c(C)c2cnc(Nc3ccc(N4CCN(CC(=O)NCCOCCOCCC(=O)Nc5ccccc5C(=O)Nc5ccc(OC(C)C)nn5)CC4)cn3)nc2n(C2CCCC2)c1=O [CPD-351, 2-(3-(2-(2-(2-(4-(6-((6-Acetyl-8-cyclopentyl-5-methyl-7-oxo-7,8-dihydropyrido[2,3-d]pyrimidin-2-yl)amino)pyridin-3-yl)piperazin-1-yl)acetamido)ethoxy)ethoxy)propanamido)-N-(6-isopropoxypyridazin-3-yl)benzamide] | D (protein percentage degradation <30%) | – | – |
| – | – | CC(=O)c1c(C)c2cnc(Nc3ccc(N4CCN(CCCCCCCCCCCC(=O)Nc5ccccc5C(=O)Nc5nc(C)c(C)s5)CC4)cn3)nc2n(C2CCCC2)c1=O [CPD-177, 2-(12-(4-(6-((6-Acetyl-8-cyclopentyl-5-methyl-7-oxo-7,8-dihydropyrido[2,3-d]pyrimidin-2-yl)amino)pyridin-3-yl)piperazin-1-yl)dodecanamido)-N-(4,5-dimethylthiazol-2-yl)benzamide] | D (protein percentage degradation <30%) | < 30 | – |
| – | – | CC(=O)c1c(C)c2cnc(Nc3ccc(N4CCN(C(=O)CCCCCNc5cccc(C(=O)Nc6nc(C)c(C)s6)c5C)CC4)cn3)nc2n(C2CCCC2)c1=O [CPD-137, 3-((6-(4-(6-((6-Acetyl-8-cyclopentyl-5-methyl-7-oxo-7,8-dihydropyrido[2,3-d]pyrimidin-2-yl)amino)pyridin-3-yl)piperazin-1-yl)-6-oxohexyl)amino)-N-(4,5-dimethylthiazol-2-yl)-2-methylbenzamide] | D (protein percentage degradation <30%) | < 30 | – |
| – | – | CC(=O)c1c(C)c2cnc(Nc3ccc(N4CCN(C(=O)CCC(=O)Nc5ccccc5C(=O)Nc5nc(C)c(C)s5)CC4)cn3)nc2n(C2CCCC2)c1=O [CPD-153, 2-(4-(4-(6-((6-Acetyl-8-cyclopentyl-5-methyl-7-oxo-7,8-dihydropyrido[2,3-d]pyrimidin-2-yl)amino)pyridin-3-yl)piperazin-1-yl)-4-oxobutanamido)-N-(4,5-dimethylthiazol-2-yl)benzamide] | D (protein percentage degradation <30%) | < 30 | – |
| – | < 30 | Cc1nc(NC(=O)c2ccccc2NC(=O)CCOCCOCCNC(=O)CN2CCN(Cc3ccc(Nc4ncc(F)c(-c5cc(F)c6nc(C)n(C(C)C)c6c5)n4)nc3)CC2)sc1C [CPD-281, N-(4,5-Dimethylthiazol-2-yl)-2-(3-(2-(2-(2-(4-((6-((5-fluoro-4-(4-fluoro-1-isopropyl-2-methyl-1H-benzo[d]imidazol-6-yl)pyrimidin-2-yl)amino)pyridin-3-yl)methyl)piperazin-1-yl)acetamido)ethoxy)ethoxy)propanamido)benzamide] | – | – | D (protein percentage degradation < 30%) |
| < 30 | – | CC(=O)c1c(C)c2cnc(Nc3ccc(N4CCN(CC(=O)NCCOCCOCCC(=O)Nc5cccc(Cl)c5C(=O)Nc5ccc(C)cn5)CC4)cn3)nc2n(C2CCCC2)c1=O [CPD-337] | D (protein percentage degradation <30%) | – | – |
| < 30 | – | COc1ccc(NC(=O)c2ccccc2NC(=O)COCCN2CCC(NC(=O)CN3CCN(c4ccc(Nc5ncc6c(C)c(C(C)=O)c(=O)n(C7CCCC7)c6n5)nc4)CC3)CC2)nn1 [CPD-347, 2-(2-(2-(4-(2-(4-(6-((6-Acetyl-8-cyclopentyl-5-methyl-7-oxo-7,8-dihydropyrido[2,3-d]pyrimidin-2-yl)amino)pyridin-3-yl)piperazin-1-yl)acetamido)piperidin-1-yl)ethoxy)acetamido)-N-(6-methoxypyridazin-3-yl)benzamide] | D (protein percentage degradation <30%) | – | – |
| < 30 | – | CC(=O)c1c(C)c2cnc(Nc3ccc(N4CCN(CC(=O)NCCOCCOCCOCCOCCOCCNc5ccc(C(=O)Nc6ncc(C(F)(F)F)s6)c(C)c5)CC4)cn3)nc2n(C2CCCC2)c1=O [CPD-003, 4-((1-(4-(6-((6-Acetyl-8-cyclopentyl-5-methyl-7-oxo-7,8-dihydropyrido[2,3-d]pyrimidin-2-yl)amino)pyridin-3-yl)piperazin-1-yl)-2-oxo-6,9,12,15,18-pentaoxa-3-azaicosan-20-yl)amino)-2-methyl-N-(5-(trifluoromethyl)thiazol-2-yl)benzamide] | D (protein percentage degradation <30%) | – | – |
| > 80 | – | CNc1ccc(C(=O)Nc2ccc(C)cn2)c(NC(=O)CCOCCOCCNC(=O)CN2CCN(c3ccc(Nc4ncc5c(C)c(C(C)=O)c(=O)n(C6CCCC6)c5n4)nc3)CC2)c1 [CPD-339, 2-(3-(2-(2-(2-(4-(6-((6-Acetyl-8-cyclopentyl-5-methyl-7-oxo-7,8-dihydropyrido[2,3-d]pyrimidin-2-yl)amino)pyridin-3-yl)piperazin-1-yl)acetamido)ethoxy)ethoxy)propanamido)-4-(methylamino)-N-(5-methylpyridin-2-yl)benzamide] | A (protein percentage degradation >=80%) | – | – |
| < 30 | – | CC(=O)c1c(C)c2cnc(Nc3ccc(N4CCN(CC(=O)NCCOCCOCCOCCOCCOCCNc5ccc(C(=O)Nc6ncc(F)s6)c(C)c5)CC4)cn3)nc2n(C2CCCC2)c1=O [CPD-028, 4-((1-(4-(6-((6-Acetyl-8-cyclopentyl-5-methyl-7-oxo-7,8-dihydropyrido[2,3-d]pyrimidin-2-yl)amino)pyridin-3-yl)piperazin-1-yl)-2-oxo-6,9,12,15,18-pentaoxa-3-azaicosan-20-yl)amino)-N-(5-fluorothiazol-2-yl)-2-methylbenzamide] | D (protein percentage degradation <30%) | – | – |
| – | < 30 | Cc1nc(NC(=O)c2ccccc2NC(=O)CCNC(=O)CN2CCN(c3ccc(Nc4ncc5cc6n(c5n4)C4(CCCCC4)CNC6=O)nc3)CC2)sc1C [CPD-315, N-(4,5-Dimethylthiazol-2-yl)-2-(3-(2-(4-(6-((6′-oxo-7′,8′-dihydro-6′H-spiro[cyclohexane-1,9′-pyrazino[1′,2′:1,5]pyrrolo[2,3-d]pyrimidin]-2′-yl)amino)pyridin-3-yl)piperazin-1-yl)acetamido)propanamido)benzamide] | – | – | D (protein percentage degradation < 30%) |
